Experimental data reported in patent US20060183889A1, “Alkyl phosphine detergent products and extraction processes” (priority 2005, published 2006).
Peptide text beside a SMILES is read from it.

Experiments:
[1] = test system: uninduced BL21 Star cells; assay: Screening of detergents: lysis of uninduced cell cultures analysed by PAGE; assay type: cell-based, E. coli; conditions: for lysis of uninduced BL21 Star cells by PAGE (FIG. 1) / lysis capabilities by PAGE (FIG. 2) / lysis performance: 1% detergent in 50 mM phosphate; for lysis of uninduced BL21 Star cells by PAGE (FIG. 1) / lysis performance: 300 mM NaCl pH 7; for lysis capabilities by PAGE (FIG. 2): 300 mM NaCl pH=7, alkyl chain length 9-11; for lysis performance: compared with BugBuster; for lysis of bacterial cells: 1% detergent in 50 mM phosphate pH 7, uninduced cell cultures, compared with BugBuster and B-Per
Procedure: (§1) Cultures were grown to OD600=1.2-1.5 and then collected for lysis. One ml of culture was subjected to centrifugation (10,000×g) and lysed in 75 to 100 μl of each lysis buffer depending on optical density (OD). In some samples 10 μl of 1:100 dilution of BENZONASE® nuclease (Benzon Pharma A/S) and 10 μl of 0.5 mg/ml Lysozyme were added. Samples were allowed to incubate at room temperature for approximately 10 minutes, then spun down at 10,000×g. Supernatant was pipetted and used for subsequent activity assays and SDS-PAGE analysis. For BL21 (DE3) pLysS cultures, 2 independent lysates of each culture with and without lysozyme were prepared and tested.
(§2) For gel electrophoresis, 15 μL of each lysate was incubated with 5 μl of 4× LDS Sample buffer and 2 μl of NuPage Reducing reagent in a 70° C. heat block for 10 minutes. 5 μl of the samples were run on 4-12% NuPAGE gels (Invitrogen cat # NP0321 or NP0323) with MES SDS running buffer. SDS-PAGE gels were stained with SimplyBlue Safe Stain (Invitrogen cat# LC6065).
Screening of a wide range of detergents was performed by evaluating the lysis of uninduced cell cultures. For the first round of screening, detergents from different chemical groups were evaluated starting with some well-known detergents such as Triton X-100, Elugent, NP-7, NP-40. The lysis buffers were prepared at 1% detergent concentration in 50 mM phosphate pH 7. The detergents were compared with known lysis procedures using BugBuster® lysis reagent (Novagen), B-Per™ protein extraction reagent (Pierce), Relay 96 Protein Screen (Invitrogen), and sonication.
Other types of detergents also screened were ASB-C8 and three other synthesized sulfobetaine detergents: SB-A, SB-B, and SB-C, as well as APO-8, APO-10, APO-12 and N-dodecanoyl sucrose as 1% detergent solutions in 50 mM phosphate, 300 mM NaCl pH 7) using BL21 Star cells. […] Lane 1 is a Mark 12 Molecular Weight Standard; lane 2 is a 1% SB-A lysis solution; lane 3 is a 1% ASB-C8 lysis solution; lane 4 is a 1% SB-B lysis solution; lane 5 is a 1% SB-C lysis solution; lane 6 is a 1% APO-8 lysis solution; lane 7 is a 1% APO-10 lysis solution; lane 8 is a 1% APO-12 lysis solution; lane 9 is a 1% N-Dodecanoyl Sucrose lysis solution and lane 10 is BugBuster® HT lysis reagent. […] It is likely that the length of the alkyl chain is critical for the lysis ability of the detergent. Therefore, another round of testing was performed with detergents of the same type with alkyl chains one […] smaller and bigger than APO-10. […] One percent detergent formulations were prepared in 50 mM phosphate, 300 mM NaCl pH=7. In FIG. 2, Lane 1 is a Mark 12 Molecular Weight Standard; lane 2 is BugBuster® HT; lane 3 is a 1% APO-9 lysis solution; lane 4 is a 1% APO-10 lysis solution and lane 5 is a 1% APO-11 lysis solution.

[2] = test system: BL-21-AI, BL-21-Star, BL-21 DE3; assay: Side by side comparison of alkylglucoside and alkylphosphine detergents as lysis reagents; assay type: cell-based, E. coli; conditions: several cell types: BL-21-AI
Procedure: as §1, §2
Side by side comparison testing was performed of the alkylglucoside and alkylphosphine detergents with several different cell types: BL-21-AI, BL-21-Star, BL-21 DE3. In this comparison testing BugBuster® HT lysis reagent (Novagen), B-Per™ protein extraction reagent (Pierce), n-octyl-β-D-glucopyranoside, n-nonyl-β-D-glucopyranoside, and n-octyl-β-D-thioglucopyranoside, APO-9 and APO-10 were utilized. […] Further optimization and testing was concentrated on the use of APO detergents by themselves and in combination with other detergents.

[3] = test system: BL21-AI cells expressing GFP; assay: Lysis of cells expressing GFP, fluorescence of lysate; assay type: cell-based, E. coli; conditions: 0.5% in 50 mM Tris pH=7; normalized to BugBuster; average of multiple treatments
Procedure: (§3) E. coli strain BL21 cells were transformed with plasmids expressing β-galactosidase, green fluorescent protein (GFP) or maltose binding protein (MBP) as follows. BL21-AI were transformed with pET 100 expressing n-terminal 6×His tagged GFP or n-terminally 6×His tagged LacZ (β-galactosidase). The cells were grown at 37° C. to OD600=0.4-0.5 and then induced with 1 mM IPTG and 0.1% arabinose. The expression was performed for 2-4 hours at 37° C. BL21 Star cells were transformed with plasmid expressing MBP. The cells were grown at 37° C. to OD600=0.4-0.5 and then induced with 1 mM IPTG. Protein expression was performed at 30° C. for 2-4 hours. […]
(§4) GFP activity was determined by reading fluorescence (Excitation at 395/Emission […]) of lysates (diluted 1:20 or 1:40 in 50 mM Phosphate pH 7). The raw data was recorded. LacZ activity was determined by using the β-galactosidase assay kit (IVGN cat # K1455-01). The lysate samples were diluted 1:100 and then analyzed as described in the kit manual. Results were obtained using OD420 readings in the following equation: nmoles of ONPG hydrolyzed/μL lysate=(OD420background) (1.92×10^5 nl)(dilution factor=100) (4500 nl/nmoles-cm)×(1 cm) Data was normalized to the reading received from a control sample prepared with BugBuster® or BugBuster® HT (Novagen) lysis reagents. […]

[4] = test system: BL21- AI cells expressing β-galactosidase; assay: Lysis of cells expressing β-galactosidase, β-galactosidase activity of lysate; assay type: cell-based, E. coli; conditions: 0.5% APO detergent formulation; lysozyme in the lysis buffer
Procedure: as §3, §4

BL21 Star cultures = assay: MBP extraction evaluated qualitatively by SDS PAGE; assay type: cell-based, E. coli; conditions: qualitative
Procedure: as §3, with “hours. BL-21(DE3) and BL-21(DE3)pLysS cells were transformed with vector expressing N-terminally 6×His tagged LacZ (β-galactosidase) (pET 100 lacZ-IVGN cat# K100-01), N-terminal Lumio tag (Cys-Cys-Pro-Gly-Cys-Cys) and 6×His tagged Lac-Z (pET 160 LacZ), and N-terminal Lumio tag (Cys-Cys-Pro-Gly-Cys-Cys) and 6×His tagged GFP (pET 160 GFP).” for “hours.”
Following preliminary screening, more detailed testing was performed using GFP, β-galactosidase and MBP expressed in E. coli. […] The activity of the β-galactosidase was measured using the β-galactosidase activity kit (Invitrogen) as described above. The GFP activity (native state) was tested by measuring the fluorescence of the protein as described above. MBP extraction was evaluated qualitatively by SDS PAGE gel electrophoresis.

[5] = cited from earlier work

CCCCCCCCCCCCP(C)(C)=O [APO-12, Dimethyldodecylphosphine oxide]
lysis of uninduced BL21 Star cells by PAGE (FIG. 1) [1]: did not lyse the cells efficiently

CCCCCCCCCCP(C)(C)=O [APO-10, Dimethyldecylphosphine oxide]
lysis of uninduced BL21 Star cells by PAGE (FIG. 1) [1]: performed very well
lysis capabilities by PAGE (FIG. 2) [1]: optimal lysis capabilities
performance as lysis reagent [2]: performed well
difference of GFP fluorescence result from the BugBuster reagent (FIG. 3) [3]: ≤ 7%
difference of β-galactosidase extraction performance from the BPER-2 reagent (FIG. 4) [4]: ≤ 5%
MBP extraction (BL21 Star cultures): similarly or slightly better

NCC(=O)NCC(=O)O [Glycylglycine] (H-Gly-Gly-OH)
pKa(4° C.) [5]: 8.85
pKa(37° C.) [5]: 7.92
Temperature Coefficient (↑pKa/° C.) [5]: 0.028 ↑pKa/° C.

CCCCCCCCCP(C)(C)=O [APO-9, Dimethylnonylphosphine oxide]
lysis capabilities by PAGE (FIG. 2) [1]: optimal lysis capabilities
performance as lysis reagent [2]: performed well

CCCCCCCCS[C@@H]1O[C@H](CO)[C@@H](O)[C@H](O)[C@H]1O [n-octyl-β-D-thioglucopyranoside]
lysis performance [1]: good lysis performance
performance as lysis reagent [2]: performed well

O=S(=O)(O)CCN(CCO)CCO [BES]
pKa(4° C.) [5]: 7.41
pKa(20° C.) [5]: 7.5
pKa(37° C.) [5]: 6.88
Temperature Coefficient (↑pKa/° C.) [5]: 0.016 ↑pKa/° C.

CCCCCCCCCCCCO[C@@H]1O[C@H](CO)[C@@H](O[C@H]2O[C@H](CO)[C@@H](O)[C@H](O)[C@H]2O)[C@H](O)[C@H]1O [n-dodecyl-β-D-maldoside]
lysis performance [1]: good lysis performance

CCCCCCCCP(C)(C)=O [APO-8, Dimethyloctylphosphine oxide]
lysis of uninduced BL21 Star cells by PAGE (FIG. 1) [1]: did not lyse the cells efficiently

CCCCCCCCCO[C@@H]1O[C@H](CO)[C@@H](O)[C@H](O)[C@H]1O [n-nonyl-β-D-glucopyranoside]
lysis performance [1]: good lysis performance
performance as lysis reagent [2]: performed well

O=C(O)CN(CCO)CCO [Bicine]
pKa(4° C.) [5]: 8.64
pKa(37° C.) [5]: 8.04
Temperature Coefficient (↑pKa/° C.) [5]: 0.018 ↑pKa/° C.

O=C(O)CNC(CO)(CO)CO [TRICINE]
pKa(4° C.) [5]: 8.49
pKa(37° C.) [5]: 7.79
Temperature Coefficient (↑pKa/° C.) [5]: 0.021 ↑pKa/° C.

Cl.NCC(N)=O [Glycinamide HCL]
pKa(4° C.) [5]: 8.66
pKa(20° C.) [5]: 8.20
pKa(37° C.) [5]: 7.71
Temperature Coefficient (↑pKa/° C.) [5]: 0.029 ↑pKa/° C.

N-dodecanoyl sucrose
lysis of uninduced BL21 Star cells by PAGE (FIG. 1) [1]: did not lyse the cells efficiently

O=S(=O)(O)CCCN1CCN(CCO)CC1 [HEPPS]
pKa(4° C.) [5]: 8.18
pKa(20° C.) [5]: 8.00
pKa(37° C.) [5]: 7.81
Temperature Coefficient (↑pKa/° C.) [5]: 0.011 ↑pKa/° C.

O=S(=O)(O)CCNC(CO)(CO)CO [TES]
pKa(4° C.) [5]: 7.82
pKa(20° C.) [5]: 7.50
pKa(37° C.) [5]: 7.16
Temperature Coefficient (↑pKa/° C.) [5]: 0.020 ↑pKa/° C.

NP-40
lysis of bacterial cells [1]: not be very efficient

CCCCCCCCO[C@@H]1O[C@H](CO)[C@@H](O)[C@H](O)[C@H]1O [n-octyl-β-D-glucopyranoside]
lysis performance [1]: good lysis performance
performance as lysis reagent [2]: performed well
MBP extraction (BL21 Star cultures): comparable

NC(=O)CN(CC(=O)O)CC(=O)O [ADA]
pKa(4° C.) [5]: 6.80
pKa(20° C.) [5]: 6.60
pKa(37° C.) [5]: 6.43
Temperature Coefficient (↑pKa/° C.) [5]: 0.011 ↑pKa/° C.

Triton X-100
lysis of bacterial cells [1]: not be very efficient
